Like-named read-outs stand apart in the source and are kept apart here.
Key:
3xTg AD mice = tested on: 3xTg AD mice; parameters: method as in Liu et al., 2013; settings: after 8 months of treatment; ref Liu et al., 2013; cited from earlier work
[1] = parameters: method as in Naseri-Nosar and Ziora, 2018; settings: ref Naseri-Nosar and Ziora, 2018, cited from earlier work
[2] = tested on: tight junction proteins (such as claudin-5 and occludin); parameters: method as in Gibson et al., 2014; settings: by inhibiting the activation of MMP-9; ref Gibson et al., 2014; cited from earlier work
[3] = Absorbed constituents and pharmacokinetics in rat plasma after Formula 9002A (UPLC-QTof-MS); settings: for half-life: SD, rat; for Fold increase of mean residence time after Formula 9002A vs monomer: vs administration of a monomer; for Fold increase of half-life after Formula 9002A vs monomer: vs intragastric or intravenous monomer from literature
Protocol: The supernatant were obtained and concentrated, then dissolved with 50% methanol–water at 4°C for LC-MS/MS analysis.
Waters Xevo G2-XS QTof-MS and Masslynx software were used to acquire LC-MS/MS raw data. Chromatographic separation on the Waters Acquity UPLC HSS T3 column was performed on the samples. The mobile phases consisted of (A) 0.1% formic acid in water and (B) acetonitrile. […] The flow rate was set at 0.3 ml/min. The temperatures of the column and the auto sampler were maintained at 40 and 4°C, respectively. The injection volume was 5 μl.
MS conditions: positive and negative ion electrospray modes were both used. Capillary voltages were set at 3 kV for the positive mode and 2.5 kV for the negative mode. Source temperature was set as 100 °C. Nitrogen was used as the nebulizer and auxiliary gas; flow rates and temperature of desolvation gas were 1,000 L/h and 400°C, respectively. The range of data acquisition was from 50 to 1,000 m/z, and the scan time was set to 0.2 s. MS^E analysis was performed with 6 eV for the low collision energy scan and 35 eV for the high collision energy scan.
The absorbed components were identified by the exact molecular mass, molecular formula, and MS^2 fragment data compared with the standard substances and literature data. The DAS 3.3.0 software was used for calculating the terminal elimination half-life (t1/2) and mean residence time (MRT).

[4] = tested on: Aβ deposition and glial cell activation in the brain; parameters: method as in Hu et al. (2014); settings: transgenic mice; ref Hu et al. (2014); cited from earlier work
Nrf2 and HO-1 = tested on: Nrf2 and HO-1; parameters: method as in Hindam et al., 2014; settings: streptozotocin-induced cognitive dysfunction; ref Hindam et al., 2014; cited from earlier work

## NC(=O)c1cccnc1 [niacinamide]
3xTg AD mice
  Cognitive function: could be improved

## OC[C@H]1O[C@@H](OCCc2ccc(O)cc2)[C@H](O)[C@@H](O)[C@@H]1O [salidroside]
[1]; gavage of salidroside monomer
  half-life: 0.64 h
[1]; intravenous injection of salidroside monomer
  half-life: 1.16 h
[2]
  Tight junction proteins / BBB damage: reversed the decrease in tight junction proteins
[3]; plasma
  half-life: 2.12 h
  Fold increase of mean residence time after Formula 9002A vs monomer: ~2 fold
  Fold increase of half-life after Formula 9002A vs monomer: 2- to 3 fold

## OCc1ccc(O[C@@H]2O[C@H](CO)[C@@H](O)[C@H](O)[C@H]2O)cc1 [gastrodin]
[4]
  Aβ deposition and glial cell activation in the brain: significantly reduce Aβ deposition and glial cell activation
[3]; in vivo
  half-life: 2.58 h
[3]; plasma
  Fold increase of mean residence time after Formula 9002A vs monomer: ~2 fold
  Fold increase of half-life after Formula 9002A vs monomer: ~2 fold

## O=c1ccc2ccc(O)cc2o1 [umbelliferone]
Nrf2 and HO-1
  Content of Nrf2 and HO-1: significantly increase
